Reference: the supplement of paper PMC10307832

Tests used:
Experiment in all cases: relative viability (nuclei count vs DMSO), 5 days (fraction); higher = more cells survive
NCI-H2405 = tested on: NCI-H2405
Outline: (§1)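 The day after seeding in 1536-well plates, lung cancer cell lines were treated by pin tool with a single drug, or with a fixed anchor-drug dose together with five library-drug doses (not always all listed) in √10 steps. After 5 days, a combined fix-and-stain solution (final 0.05% Triton X-100, 1% formaldehyde, 1 ug/ml Hoechst) was added. Nuclei counted on 4× images gave relative viability as treated counts over vehicle counts, reported as the median of duplicate plates.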

NCI-H1650 = tested on: NCI-H1650
Outline: as §1

NCI-H441 = tested on: NCI-H441
Outline: as §1

H3255 = tested on: H3255
Outline: as §1

HCC-827 = tested on: HCC-827
Outline: as §1

LXF-289 = tested on: LXF-289
Outline: as §1

UMC-11 = tested on: UMC-11
Outline: as §1

LK-2 = tested on: LK-2
Outline: as §1

NCI-H1993 = tested on: NCI-H1993
Outline: as §1

LCLC-97TM1 = tested on: LCLC-97TM1
Outline: as §1

EPLC-272H = tested on: EPLC-272H
Outline: as §1

LU99A = tested on: LU99A
Outline: as §1

SW 1573 = tested on: SW 1573
Outline: as §1

ChaGo-K-1 = tested on: ChaGo-K-1
Outline: as §1

NCI-H1355 = tested on: NCI-H1355
Outline: as §1

NCI-H3122 = tested on: NCI-H3122
Outline: as §1

EKVX = tested on: EKVX
Outline: as §1

NCI-H2228 = tested on: NCI-H2228
Outline: as §1

NCI-H2170 = tested on: NCI-H2170
Outline: as §1

SK-LU-1 = tested on: SK-LU-1
Outline: as §1

HOP-62 = tested on: HOP-62
Outline: as §1

PC-3 [JPC-3] = tested on: PC-3 [JPC-3]
Outline: as §1

## Cc1cn(-c2cc(NC(=O)c3ccc(C)c(Nc4nccc(-c5cccnc5)n4)c3)cc(C(F)(F)F)c2)cn1 [Nilotinib] + COc1cc2c(Oc3ccc(NC(=O)C4(C(=O)Nc5ccc(F)cc5)CC4)cc3F)ccnc2cc1OCCCN1CCOCC1 [Foretinib] (partner 0.25 µM)
NCI-H2405; first compound 0.001 µM
  relative viability: 1.05
NCI-H2405; first compound 0.003162 µM
  relative viability: 1.05
NCI-H2405; first compound 0.01 µM
  relative viability: 1.03
NCI-H2405; first compound 0.03162 µM
  relative viability: 0.956
NCI-H2405; first compound 0.1 µM
  relative viability: 0.98
NCI-H1650; first compound 0.001 µM
  relative viability: 1.09
NCI-H1650; first compound 0.003162 µM
  relative viability: 1.2
NCI-H1650; first compound 0.01 µM
  relative viability: 1.3
NCI-H1650; first compound 0.03162 µM
  relative viability: 1.09
NCI-H1650; first compound 0.1 µM
  relative viability: 1.3
NCI-H441; first compound 0.001 µM
  relative viability: 0.878
NCI-H441; first compound 0.003162 µM
  relative viability: 1.26
NCI-H441; first compound 0.01 µM
  relative viability: 1.32
NCI-H441; first compound 0.03162 µM
  relative viability: 0.932
NCI-H441; first compound 0.1 µM
  relative viability: 0.805
H3255; first compound 0.001 µM
  relative viability: 0.943
H3255; first compound 0.003162 µM
  relative viability: 1.06
H3255; first compound 0.03162 µM
  relative viability: 0.845
H3255; first compound 0.1 µM
  relative viability: 0.296
HCC-827; first compound 0.003162 µM
  relative viability: 1.13
HCC-827; first compound 0.01 µM
  relative viability: 1.06
HCC-827; first compound 0.03162 µM
  relative viability: 0.939
HCC-827; first compound 0.1 µM
  relative viability: 0.938
LXF-289; first compound 0.001 µM
  relative viability: 0.968
LXF-289; first compound 0.003162 µM
  relative viability: 1.16
LXF-289; first compound 0.03162 µM
  relative viability: 0.893
LXF-289; first compound 0.1 µM
  relative viability: 0.761
UMC-11; first compound 0.001 µM
  relative viability: 0.896
UMC-11; first compound 0.003162 µM
  relative viability: 1.18
UMC-11; first compound 0.01 µM
  relative viability: 1.23
UMC-11; first compound 0.1 µM
  relative viability: 1.17
LK-2; first compound 0.001 µM
  relative viability: 1.02
LK-2; first compound 0.003162 µM
  relative viability: 1.53
LK-2; first compound 0.01 µM
  relative viability: 1.1
LK-2; first compound 0.03162 µM
  relative viability: 0.905
LK-2; first compound 0.1 µM
  relative viability: 0.711
NCI-H1993; first compound 0.001 µM
  relative viability: 0.823
NCI-H1993; first compound 0.003162 µM
  relative viability: 0.871
NCI-H1993; first compound 0.01 µM
  relative viability: 0.989
NCI-H1993; first compound 0.03162 µM
  relative viability: 0.742
NCI-H1993; first compound 0.1 µM
  relative viability: 0.839
LCLC-97TM1; first compound 0.001 µM
  relative viability: 0.902
LCLC-97TM1; first compound 0.003162 µM
  relative viability: 1.05
LCLC-97TM1; first compound 0.01 µM
  relative viability: 0.956
LCLC-97TM1; first compound 0.03162 µM
  relative viability: 0.883
LCLC-97TM1; first compound 0.1 µM
  relative viability: 0.885
EPLC-272H; first compound 0.001 µM
  relative viability: 0.48
EPLC-272H; first compound 0.003162 µM
  relative viability: 0.658
EPLC-272H; first compound 0.01 µM
  relative viability: 0.688
EPLC-272H; first compound 0.03162 µM
  relative viability: 0.435
EPLC-272H; first compound 0.1 µM
  relative viability: 0.195
LU99A; first compound 0.001 µM
  relative viability: 0.784
LU99A; first compound 0.003162 µM
  relative viability: 0.848
LU99A; first compound 0.01 µM
  relative viability: 0.889
LU99A; first compound 0.03162 µM
  relative viability: 0.823
LU99A; first compound 0.1 µM
  relative viability: 0.509
SW 1573; first compound 0.001 µM
  relative viability: 0.949
SW 1573; first compound 0.003162 µM
  relative viability: 1.14
SW 1573; first compound 0.01 µM
  relative viability: 1.14
SW 1573; first compound 0.03162 µM
  relative viability: 0.753
SW 1573; first compound 0.1 µM
  relative viability: 0.808
ChaGo-K-1; first compound 0.001 µM
  relative viability: 0.799
ChaGo-K-1; first compound 0.003162 µM
  relative viability: 1.09
ChaGo-K-1; first compound 0.01 µM
  relative viability: 1.03
ChaGo-K-1; first compound 0.03162 µM
  relative viability: 0.582
ChaGo-K-1; first compound 0.1 µM
  relative viability: 0.756
NCI-H1355; first compound 0.001 µM
  relative viability: 0.907
NCI-H1355; first compound 0.003162 µM
  relative viability: 1.19
NCI-H1355; first compound 0.01 µM
  relative viability: 1.25
NCI-H1355; first compound 0.03162 µM
  relative viability: 0.893
NCI-H1355; first compound 0.1 µM
  relative viability: 0.992
NCI-H3122; first compound 0.001 µM
  relative viability: 1.02
NCI-H3122; first compound 0.003162 µM
  relative viability: 1.09
NCI-H3122; first compound 0.01 µM
  relative viability: 1.08
NCI-H3122; first compound 0.03162 µM
  relative viability: 0.929
NCI-H3122; first compound 0.1 µM
  relative viability: 0.68
EKVX; first compound 0.001 µM
  relative viability: 0.726
EKVX; first compound 0.003162 µM
  relative viability: 1
EKVX; first compound 0.01 µM
  relative viability: 1.43
EKVX; first compound 0.03162 µM
  relative viability: 0.512
EKVX; first compound 0.1 µM
  relative viability: 0.187
NCI-H2228; first compound 0.003162 µM
  relative viability: 0.99
NCI-H2228; first compound 0.01 µM
  relative viability: 1.06
NCI-H2228; first compound 0.03162 µM
  relative viability: 0.549
NCI-H2228; first compound 0.1 µM
  relative viability: 0.8
NCI-H2170; first compound 0.001 µM
  relative viability: 1.03
NCI-H2170; first compound 0.003162 µM
  relative viability: 1.14
NCI-H2170; first compound 0.01 µM
  relative viability: 1.24
NCI-H2170; first compound 0.03162 µM
  relative viability: 0.995
NCI-H2170; first compound 0.1 µM
  relative viability: 1.01
SK-LU-1; first compound 0.001 µM
  relative viability: 0.745
SK-LU-1; first compound 0.003162 µM
  relative viability: 0.925
SK-LU-1; first compound 0.01 µM
  relative viability: 0.956
SK-LU-1; first compound 0.03162 µM
  relative viability: 0.691
SK-LU-1; first compound 0.1 µM
  relative viability: 0.666
HOP-62; first compound 0.001 µM
  relative viability: 0.802
HOP-62; first compound 0.003162 µM
  relative viability: 1.16
HOP-62; first compound 0.01 µM
  relative viability: 1.27
HOP-62; first compound 0.03162 µM
  relative viability: 0.831
HOP-62; first compound 0.1 µM
  relative viability: 0.771
PC-3 [JPC-3]; first compound 0.001 µM
  relative viability: 1.03
PC-3 [JPC-3]; first compound 0.003162 µM
  relative viability: 1.16
PC-3 [JPC-3]; first compound 0.01 µM
  relative viability: 1.25
PC-3 [JPC-3]; first compound 0.03162 µM
  relative viability: 0.967
PC-3 [JPC-3]; first compound 0.1 µM
  relative viability: 0.863
